Reference: ChEMBL document CHEMBL4145540 (Eur J Med Chem, 2018)
Activity calls are given as the source filed them. The calls are words filed in the database; no cut-off is given here.

What was measured:
[1] = system: A549; assay: Cell cycle arrest in human A549 cells assessed as accumulation at G0/G1 phase at 70 nM after 20 hrs by propidium iodide staining based flow cytometry (reference value: 66 +/- 1%); type: functional
[2] = system: HT-29; assay: Antiproliferative activity against human HT-29 cells after 2 days by MTT assay; type: functional, cell-based; conditions: HT-29, 48 h
[3] = system: HMEC-1; assay: Antiproliferative activity against HMEC1 cells after 2 days by MTT assay; type: functional, cell-based; conditions: Homo sapiens, HMEC-1, 48 h
[4] = system: A549; assay: Cell cycle arrest in human A549 cells assessed as accumulation at G2/M phase at 70 nM after 20 hrs by propidium iodide staining based flow cytometry (reference value: 11 +/- 1%); type: functional
[5] = system: A549; assay: Antiproliferative activity against human A549 cells after 2 days by MTT assay; type: functional, cell-based; conditions: A549, 48 h
[6] = system: HL-60; assay: Antiproliferative activity against human HL60 cells after 2 days by MTT assay; type: functional, cell-based; conditions: HL-60, 48 h
[7] = system: HeLa; assay: Antiproliferative activity against human HeLa cells after 2 days by MTT assay; type: functional, cell-based; conditions: 48 h
[8] = system: A549; assay: Cell cycle arrest in human A549 cells assessed as accumulation at S phase at 70 nM after 20 hrs by propidium iodide staining based flow cytometry (reference value: 16 +/- 1%); type: functional
[9] = system: A549; assay: Cell cycle arrest in human A549 cells assessed as accumulation at sub-G0 phase at 70 nM after 20 hrs by propidium iodide staining based flow cytometry (reference value: 6.6 +/- 0.1%); type: functional
[10] = system: MCF7; assay: Antiproliferative activity against human MCF7 cells after 2 days by MTT assay; type: functional, cell-based; conditions: MCF7, 48 h
[11] = system: HEK293; assay: Antiproliferative activity against HEK293 cells after 2 days by MTT assay; type: cell-based; conditions: Homo sapiens, HEK293, 48 h
[12] = system: MDA-MB-231; assay: Antiproliferative activity against human MDA-MB-231 cells after 3 days by coulter counting method; type: functional, cell-based; conditions: MDA-MB-231, 72 h
[13] = system: A549; assay: Cell cycle arrest in human A549 cells assessed as accumulation at G2/M phase at 45 nM after 20 hrs by propidium iodide staining based flow cytometry (reference value: 11 +/- 1%); type: functional
[14] = system: A549; assay: Cell cycle arrest in human A549 cells assessed as accumulation at sub-G0 phase at 45 nM after 20 hrs by propidium iodide staining based flow cytometry (reference value: 6.6 +/- 0.1%); type: functional
[15] = system: A549; assay: Induction of apoptosis in human A549 cells at 10 nM after 24 hrs by Annexin V-FITC/propidium iodide staining based flow cytometry (reference value: 28%); type: functional
[16] = system: A549; assay: Induction of apoptosis in human A549 cells after 24 hrs by Annexin V-FITC/propidium iodide staining based flow cytometry; type: functional, cell-based
[17] = system: A549; assay: Cell cycle arrest in human A549 cells assessed as accumulation at G0/G1 phase at 45 nM after 20 hrs by propidium iodide staining based flow cytometry (reference value: 66 +/- 1%); type: functional
[18] = system: A549; assay: Cell cycle arrest in human A549 cells assessed as accumulation at S phase at 45 nM after 20 hrs by propidium iodide staining based flow cytometry (reference value: 16 +/- 1%); type: functional
[19] = system: A549; assay: Induction of apoptosis in human A549 cells at 100 nM after 24 hrs by Annexin V-FITC/propidium iodide staining based flow cytometry (reference value: 28%); type: functional
[20] = organism: Bos taurus; assay: Inhibition of calf brain tubulin polymerization after 60 mins by turbidimetric method

IC50 [2] [nM]	IC50 [5] [nM]	IC50 [6] [nM]	IC50 [7] [nM]	IC50 [10] [nM]	IC50 [12] [nM]	inhibition [20]	Structure (SMILES)	Activity [1] [%]	IC50 [3] [nM]	Activity [4] [%]	Activity [8] [%]	Activity [9] [%]	IC50 [11] [nM]	Activity [13] [%]	Activity [14] [%]	Activity [15] [%]	Activity [16]	Activity [17] [%]	Activity [18] [%]	Activity [19] [%]
47	140	70	23	39	14	–	COc1ccc(/C=C\c2cc(OC)c(OC)c(OC)c2)cc1NC(=O)Oc1cccc(Cl)c1C	24	20	39	18	20	14	–	–	–	–	–	–	–
23	90	1.8	3.7	6.1	13.7	Active	COc1ccc(/C=C\c2cc(OC)c(OC)c(OC)c2)cc1NC(=O)Oc1ccc(C)c(Cl)c1	–	6	–	–	–	7	36	29	23	Dose-dependent effect	21	14	46
